In US20240299562A1 (priority 2020, published 2024):
*1 amine or outer side, *2 acyl side, *3 side chain or, on linkers, in order; H or OH if unused. Where a SMILES comes first, the peptide text is derived from it. [ ]: non-standard residue; d: D form. The star is where a group is joined. X1 = CO[C@@H](C1CCCN1[*:1])[C@@H](C)C(=O)[*:2]; Dil = CC[C@H](C)[C@H](NC)[C@@H](CC(=O)O)OC; PABC = O=C(OCc1ccc(N[*:1])cc1)[*:2]; Phosphonoacetyl = O=C(CP(=O)(O)O)*; X2 = C[C@@H](N*)[C@@H](O)c1ccccc1; NMeV = CN[C@H](C(=O)O)C(C)C

Key:
[1] = system: U87 MG glioblastoma cells subcutaneously implanted in nude NMRI mice; experiment: In vivo activity of PhAc-ALLP-PABC-MMAE on U87 MG glioblastoma xenograft; parameters: species or system mouse; conditions: 2 mg/kg iv, once per week
Description: The in vivo efficacy of PhAc-ALLP-PABC-MMAE was tested in a mouse GBM model. U87 MG glioblastoma cells were subcutaneously (SC) implanted in nude NMRI mice. In total, 24 adult (9-10 weeks old) nude female NMRI mice (Janvier, France) were subjected to SC tumor cell grafting in the right flank. In total, 5×10^6 U87 MG cells resuspended in PBS plus Matrigel (1:1) were injected in 200 uL final volume. As soon as the tumors were palpable and reached the volume of 200 mm3 the treatment was started. At day zero, mice were randomly divided into 3 groups, based on the tumor volume, in order to have the following experimental sub-cohorts: • control group receiving the vehicle (PBS pH7.2) with a dose of 5 ml/kg, intravenously (iv), once per week (QW); • PhAc-ALLP-PABC-MMAE (2 mg/kg iv, QW); • MMAE (0.9 mg/kg iv, QW).
(§1) Treatments were performed once per week for a total of four tail vein administrations/injections (on days 1, 7, 14 and 21). One extra week of observation followed the active treatment phase. During the experiment, tumor volume was measured two times a week and was assessed three-dimensionally with a digital caliper (Mitutoyo, Illinois) using the following formula:
V=4/3π×[(d/2)^2×(D/2)], where d is the minor tumor axis and D is the major tumor axis.

[2] = system: LS-174T colorectal tumor cells xenografted in Nude NMRI mice; experiment: In vivo activity on LS-174T colorectal cancer xenograft; parameters: species or system mouse; conditions: twice per week
Description: The in vivo efficacy of PhAc-ALLP-Dox was tested in a mouse model of colorectal cancer. LS-174T colorectal tumor cells were xenografted in Nude NMRI mice. In total, 30 adult (9-10 weeks old) nude female NMRI mice (Janvier, France) were subjected to subcutaneous (SC) tumor cell grafting in the right flank. In total, 2×10^6 LS-174T cells resuspended in PBS were injected in 200 uL final volume. As soon as the tumors were palpable and reached the volume of 200 mm3 the treatment was started. […]
as §1, with “twice” for “once”, “4, 7” for “7, 14”, “10). […]” for “21). One extra week of observation followed the active treatment phase.”, “formula: […]” for “formula:”
Tumor growth inhibition (TGI) expressed as percentage vs control was calculated as follows: % TGI=(1−{Tt/T0/Ct/C0}/1−{C0/Ct})×100 where Tt and T0 are the individual tumor volume of treated mouse X at times t and 0 respectively, Ct and C0 are the mean tumor volume of the control group at times t and 0 respectively.

cancer cell lines = experiment: In vitro potency and selectivity across a variety of cancer indications (WST-1); assay type: cell-based; conditions: 72 hrs
Description: All commercial cell lines were purchased at ATCC (LGC Standards SARL, France). Cells were seeded in 96-well plates according to their optimal seeding density, varying between 5.000 and 10.000 cells/well. After attachment overnight, 10-point serial titrations (1:5) were prepared in their equivalent complete media as recommended by ATCC, starting from the 10 mM stock solutions. For doxorubicin comprising prodrugs dilutions started from 100 μM, while for the parent compound doxorubicin dilutions started at 10 μM. […] Seventy-two hours later, compounds were removed together with the supernatants and cells were washed once with PBS to remove excess drugs.
The WST-1 assay for cell proliferation and viability (Roche, Switzerland) was performed according to manufacturer's protocol. Absorbances were measured at 4 hrs using a Perkin Elmer Ensight multiplate reader, equipped with Kaleido 2.0 software (Perkin Elmer, USA). Cell viability was expressed as a percentage compared to non-treated cells. Absolute IC50 values were extrapolated from a non-linear fitting following the Sigmoidal-4PL regression method using Graphpad Prism 7.0. Likewise, maximal efficacy was determined as 100% minus the cell viability determined when cells are incubated in the presence of a compound. […]

| Structure (SMILES) | Macroscopical toxicity [1] | Tumor volume compared to the untreated control group ([1]; four administrations) | Tolerability ([2]; 10 mg/kg and 30 mg/kg iv) | Tumor volume compared to the untreated control group ([2]; 30 mg/kg iv, four tail vein administrations) | Potency range against cancer cells (cancer cell lines) |
| --- | --- | --- | --- | --- | --- |
| CC[C@H](C)[C@@H]([C@@H](CC(=O)N1CCCC1[C@H](OC)[C@@H](C)C(=O)N[C@H](C)[C@@H](O)c1ccccc1)OC)N(C)C(=O)[C@@H](NC(=O)[C@H](C(C)C)N(C)C(=O)OCc1ccc(NC(=O)[C@@H]2CCCN2C(=O)[C@H](CC(C)C)NC(=O)[C@H](CC(C)C)NC(=O)[C@H](C)NC(=O)CP(=O)(O)O)cc1)C(C)C (some centres unmarked) [PhAc-ALLP-PABC-MMAE] (Phosphonoacetyl-ALLP[PABC][NMeV]V[Dil][X1]-X2) | without any hint of macroscopical sign of toxicity | importantly reduced the tumor volume | – | – | – |
| COc1cccc2c1C(=O)c1c(O)c3c(c(O)c1C2=O)C[C@@](O)(C(=O)CO)C[C@@H]3O[C@H]1C[C@H](NC(=O)[C@@H]2CCCN2C(=O)[C@H](CC(C)C)NC(=O)[C@H](CC(C)C)NC(=O)[C@H](C)NC(=O)CP(=O)(O)O)[C@H](O)[C@H](C)O1 [PhAc-ALLP-Dox, PhAc-ALLP-Doxorubicin] (HELM PEPTIDE1{[O=C(CP(=O)(O)O)[*:2]].A.L.L.P.[COc1cccc2c1C(=O)c1c(O)c3c(c(O)c1C2=O)C[C@@](O)(C(=O)CO)C[C@@H]3O[C@H]1C[C@H](N[*:1])[C@H](O)[C@H](C)O1]}$$$$V2.0) | – | – | mice did tolerate both doses | significantly reduced the tumor volume | within the micromolar range |
